Target: IKZF2 (Homo sapiens (Human), UniProt Q96SW2+Q9UKS7)
Experiment: IKZF2 HiBiT Assay (Jurkat-IKZF2-HiBiT cell line)
Format: cell-based
Settings: Jurkat-IKZF2-HiBiT cells, 24 hours; for DC50: read-out: HiBit assay degradation analysis DC50; for Dmax: read-out: HiBit assay degradation analysis Dmax
How it was run: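 Jurkat cells carrying HiBiT-tagged IKZF2 were exposed to serially diluted compound for 24 h at 37 °C. Remaining IKZF2 was measured by Nano-Glo HiBiT lytic luminescence after 10-20 min at room temperature. Signal was normalized to DMSO, and IC50 came from a four-parameter variable-slope fit.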

IKZF2, sequence (Q9UKS7 whole entry): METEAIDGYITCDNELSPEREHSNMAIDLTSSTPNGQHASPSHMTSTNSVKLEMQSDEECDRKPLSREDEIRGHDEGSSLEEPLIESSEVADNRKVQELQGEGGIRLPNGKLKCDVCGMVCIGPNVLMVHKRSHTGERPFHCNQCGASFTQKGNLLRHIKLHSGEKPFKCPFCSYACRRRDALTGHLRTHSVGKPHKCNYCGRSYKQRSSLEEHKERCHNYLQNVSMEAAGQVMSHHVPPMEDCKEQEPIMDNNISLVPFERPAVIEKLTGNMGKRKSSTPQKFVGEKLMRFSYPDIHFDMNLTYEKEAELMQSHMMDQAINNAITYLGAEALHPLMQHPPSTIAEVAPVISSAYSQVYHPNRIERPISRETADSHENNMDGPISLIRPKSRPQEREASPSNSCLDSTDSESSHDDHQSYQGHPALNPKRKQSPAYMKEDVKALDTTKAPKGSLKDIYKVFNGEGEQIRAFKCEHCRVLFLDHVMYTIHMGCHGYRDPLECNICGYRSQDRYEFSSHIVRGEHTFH
IKZF2, sequence (Q96SW2 whole entry): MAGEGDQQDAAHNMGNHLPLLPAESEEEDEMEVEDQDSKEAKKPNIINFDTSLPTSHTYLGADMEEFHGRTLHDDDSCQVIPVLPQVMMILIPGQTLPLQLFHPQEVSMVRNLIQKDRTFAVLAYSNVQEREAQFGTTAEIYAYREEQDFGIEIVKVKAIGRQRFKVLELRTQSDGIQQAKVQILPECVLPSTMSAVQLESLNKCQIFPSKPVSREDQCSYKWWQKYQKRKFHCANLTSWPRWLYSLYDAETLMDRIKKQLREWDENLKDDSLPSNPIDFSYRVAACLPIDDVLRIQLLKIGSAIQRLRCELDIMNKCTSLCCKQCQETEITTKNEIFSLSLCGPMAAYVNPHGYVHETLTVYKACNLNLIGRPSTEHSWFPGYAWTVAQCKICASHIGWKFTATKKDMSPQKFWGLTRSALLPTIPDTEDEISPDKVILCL
IKZF2, sequence (Q16531 whole entry partner): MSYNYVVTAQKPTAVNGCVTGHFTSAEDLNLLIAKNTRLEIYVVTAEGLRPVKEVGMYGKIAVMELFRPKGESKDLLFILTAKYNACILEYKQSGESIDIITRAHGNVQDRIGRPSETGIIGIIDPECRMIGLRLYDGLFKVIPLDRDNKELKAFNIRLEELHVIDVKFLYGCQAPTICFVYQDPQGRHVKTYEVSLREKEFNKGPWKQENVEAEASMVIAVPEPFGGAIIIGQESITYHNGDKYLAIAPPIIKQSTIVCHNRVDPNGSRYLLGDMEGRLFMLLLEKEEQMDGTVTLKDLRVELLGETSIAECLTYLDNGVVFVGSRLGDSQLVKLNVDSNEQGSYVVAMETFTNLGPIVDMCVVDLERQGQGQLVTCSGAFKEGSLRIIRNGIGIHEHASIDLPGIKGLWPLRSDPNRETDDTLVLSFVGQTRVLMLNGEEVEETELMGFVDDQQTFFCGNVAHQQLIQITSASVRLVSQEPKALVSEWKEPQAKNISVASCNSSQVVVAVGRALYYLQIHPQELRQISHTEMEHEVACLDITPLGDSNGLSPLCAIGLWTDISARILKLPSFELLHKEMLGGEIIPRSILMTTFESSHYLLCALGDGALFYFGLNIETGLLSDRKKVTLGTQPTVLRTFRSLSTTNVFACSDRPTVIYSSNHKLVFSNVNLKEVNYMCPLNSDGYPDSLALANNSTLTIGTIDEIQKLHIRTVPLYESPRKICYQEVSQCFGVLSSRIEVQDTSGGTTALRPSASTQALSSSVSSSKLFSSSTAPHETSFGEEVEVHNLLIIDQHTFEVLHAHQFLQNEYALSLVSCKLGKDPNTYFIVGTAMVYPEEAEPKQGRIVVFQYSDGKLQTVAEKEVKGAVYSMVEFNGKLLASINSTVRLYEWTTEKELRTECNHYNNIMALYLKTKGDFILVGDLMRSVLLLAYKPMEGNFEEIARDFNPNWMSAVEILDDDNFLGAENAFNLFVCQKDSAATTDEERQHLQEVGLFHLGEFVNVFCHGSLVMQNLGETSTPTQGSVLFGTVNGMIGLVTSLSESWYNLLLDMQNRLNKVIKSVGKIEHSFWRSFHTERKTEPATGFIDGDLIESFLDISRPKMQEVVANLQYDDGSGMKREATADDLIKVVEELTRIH

Row | SMILES | DC50 [nM] | Dmax [%]
1 | O=C1CCC(N2Cc3c(ccc4c3OCC43CCN(Cc4cnn(Cc5ccccc5Cl)c4)CC3)C2=O)C(=O)N1 (centres unmarked) [Compound A240, 3-(1′-((1-(2-chlorobenzyl)-1H-pyrazol-4-yl)methyl)-6-oxo-6,8-dihydro-2H,7H-spiro[furo[2,3-e]isoindole-3,4′-piperidin]-7-yl)piperidine-2,6-dione] | < 50 | 60 to 80
2 | O=C1CCC(N2Cc3c(ccc4c3OCC43CCN(Cc4cnn(Cc5ccc(Cl)cc5)c4)CC3)C2=O)C(=O)N1 (centres unmarked) [Compound A241, 3-(1′-((1-(4-chlorobenzyl)-1H-pyrazol-4-yl)methyl)-6-oxo-6,8-dihydro-2H,7H-spiro[furo[2,3-e]isoindole-3,4′-piperidin]-7-yl)piperidine-2,6-dione] | < 50 | 60 to 80
3 | O=C1CCC(N2Cc3c(ccc4c3OCC43CCN(Cc4cnn(Cc5cccc(Cl)c5)c4)CC3)C2=O)C(=O)N1 (centres unmarked) [Compound A242, 3-(1′-((1-(3-chlorobenzyl)-1H-pyrazol-4-yl)methyl)-6-oxo-6,8-dihydro-2H,7H-spiro[furo[2,3-e]isoindole-3,4′-piperidin]-7-yl) piperidine-2,6-dione] | < 50 | 60 to 80
4 | O=C1CCC(N2Cc3c(ccc4c3OCC43CCN(Cc4ccn(-c5ccc(Cl)cc5)n4)CC3)C2=O)C(=O)N1 (centres unmarked) [Compound A243, 3-(1′-((1-(4-chlorophenyl)-1H-pyrazol-3-yl)methyl)-6-oxo-6,8-dihydro-2H,7H-spiro[furo[2,3-e]isoindole-3,4′-piperidin]-7-yl)piperidine-2,6-dione] | 50 to 200 | 60 to 80
5 | O=C1CCC(N2Cc3c(ccc4c3OCC43CCN(Cc4cnn5c4CCC5)CC3)C2=O)C(=O)N1 (centres unmarked) [Compound A244, 3-(1′-((5,6-dihydro-4H-pyrrolo[1,2-b]pyrazol-3-yl)methyl)-6-oxo-6,8-dihydro-2H,7H-spiro[furo[2,3-e]isoindole-3,4′-piperidin]-7-yl)piperidine-2,6-dione] | 200 to 500 | 60 to 80
6 | O=C1CCC(N2Cc3c(ccc4c3OCC43CCN(Cc4cnn5c4CCCC5)CC3)C2=O)C(=O)N1 (centres unmarked) [Compound A245, 3-(6-oxo-1′-((4,5,6,7-tetrahydropyrazolo[1,5-a]pyridin-3-yl)methyl)-6,8-dihydro-2H,7H-spiro[furo[2,3-e]isoindole-3,4′-piperidin]-7-yl)piperidine-2,6-dione] | 200 to 500 | 40 to 60
7 | O=C1CCC(N2Cc3c(ccc4c3OCC43CCN(Cc4ccnn4-c4ccccc4)CC3)C2=O)C(=O)N1 (centres unmarked) [Compound A246, 3-(6-oxo-1′-((1-phenyl-1H-pyrazol-5-yl)methyl)-6,8-dihydro-2H,7H-spiro[furo[2,3-e]isoindole-3,4′-piperidin]-7-yl)piperidine-2,6-dione] | > 500 | < 40
8 | CCOc1cc(CN2CCC3(CC2)COc2c3ccc3c2CN(C2CCC(=O)NC2=O)C3=O)ccn1 (centres unmarked) [Compound A247, 3-(1′-((2-ethoxypyridin-4-yl)methyl)-6-oxo-6,8-dihydro-2H,7H-spiro[furo[2,3-e]isoindole-3,4′-piperidin]-7-yl)piperidine-2,6-dione] | > 500 | < 40
9 | O=C1CCC(N2Cc3c(ccc4c3OCC43CCN(Cc4cncc(Cl)c4)CC3)C2=O)C(=O)N1 (centres unmarked) [Compound A248, 3-(1′-((5-chloropyridin-3-yl)methyl)-6-oxo-6,8-dihydro-2H,7H-spiro[furo[2,3-e]isoindole-3,4′-piperidin]-7-yl)piperidine-2,6-dione] | > 500 | < 40
10 | O=C1CCC(N2Cc3c(ccc4c3OCC43CCN(Cc4cccnc4Cl)CC3)C2=O)C(=O)N1 (centres unmarked) [Compound A249, 3-(1′-((2-chloropyridin-3-yl)methyl)-6-oxo-6,8-dihydro-2H,7H-spiro[furo[2,3-e]isoindole-3,4′-piperidin]-7-yl)piperidine-2,6-dione] | > 500 | < 40
11 | O=C1CCC(N2Cc3c(ccc4c3OCC43CCN(Cc4ccnc(Cl)c4)CC3)C2=O)C(=O)N1 (centres unmarked) [Compound A250, 3-(1′-((2-chloropyridin-4-yl)methyl)-6-oxo-6,8-dihydro-2H,7H-spiro[furo[2,3-e]isoindole-3,4′-piperidin]-7-yl)piperidine-2,6-dione] | > 500 | < 40
12 | O=C1CCC(N2Cc3c(ccc4c3OCC43CCN(Cc4ccn(-c5ccccc5)n4)CC3)C2=O)C(=O)N1 (centres unmarked) [Compound A251, 3-(6-oxo-1′-((1-phenyl-1H-pyrazol-3-yl)methyl)-6,8-dihydro-2H,7H-spiro[furo[2,3-e]isoindole-3,4′-piperidin]-7-yl)piperidine-2,6-dione] | > 500 | < 40
13 | CCOc1cccc(CN2CCC3(CC2)COc2c3ccc3c2CN(C2CCC(=O)NC2=O)C3=O)n1 (centres unmarked) [Compound A252, 3-(1′-((6-ethoxypyridin-2-yl)methyl)-6-oxo-6,8-dihydro-2H,7H-spiro[furo[2,3-e]isoindole-3,4′-piperidin]-7-yl)piperidine-2,6-dione] | > 500 | < 40
14 | O=C1CCC(N2Cc3c(ccc4c3OCC43CCN(Cc4nncn4-c4ccccc4)CC3)C2=O)C(=O)N1 (centres unmarked) [Compound A253, 3-(6-oxo-1′-((4-phenyl-4H-1,2,4-triazol-3-yl)methyl)-6,8-dihydro-2H,7H-spiro[furo[2,3-e]isoindole-3,4′-piperidin]-7-yl)piperidine-2,6-dione] | > 500 | < 40
15 | O=C1CCC(N2Cc3c(ccc4c3OCC43CCN(Cc4ncnn4-c4ccccc4)CC3)C2=O)C(=O)N1 (centres unmarked) [Compound A254, 3-(6-oxo-1′-((1-phenyl-1H-1,2,4-triazol-5-yl)methyl)-6,8-dihydro-2H,7H-spiro[furo[2,3-e]isoindole-3,4′-piperidin]-7-yl)piperidine-2,6-dione] | > 500 | < 40
16 | O=C1CCC(N2Cc3c(ccc4c3OCC43CCN(Cc4ccnn4C4CCOCC4)CC3)C2=O)C(=O)N1 (centres unmarked) [Compound A255, 3-(6-oxo-1′-((1-(tetrahydro-2H-pyran-4-yl)-1H-pyrazol-5-yl)methyl)-6,8-dihydro-2H,7H-spiro[furo[2,3-e]isoindole-3,4′-piperidin]-7-yl)piperidine-2,6-dione] | > 500 | < 40
17 | Cn1cc(CN2CCC3(CC2)COc2c3ccc3c2CN(C2CCC(=O)NC2=O)C3=O)c(-c2ccccc2)n1 (centres unmarked) [Compound A256, 3-(1′-((1-methyl-3-phenyl-1H-pyrazol-4-yl)methyl)-6-oxo-6,8-dihydro-2H,7H-spiro[furo[2,3-e]isoindole-3,4′-piperidin]-7-yl)piperidine-2,6-dione] | > 500 | < 40
18 | Cn1cc(CN2CCC3(CC2)COc2c3ccc3c2CN(C2CCC(=O)NC2=O)C3=O)c(Cl)n1 (centres unmarked) [Compound A257, 3-(1′-((3-chloro-1-methyl-1H-pyrazol-4-yl)methyl)-6-oxo-6,8-dihydro-2H,7H-spiro[furo[2,3-e]isoindole-3,4′-piperidin]-7-yl)piperidine-2,6-dione] | > 500 | < 40
19 | Cn1cc(-c2cccc(CN3CCC4(CC3)OCc3c4ccc4c3CN(C3CCC(=O)NC3=O)C4=O)c2)cn1 (centres unmarked) [Compound A259, 3-(1′-(3-(1-methyl-1H-pyrazol-4-yl)benzyl)-6-oxo-6,8-dihydrospiro[furo[3,4-e]isoindoline-3,4′-piperidin]-7(1H)-yl)piperidine-2,6-dione] | > 500 | 40 to 60
